# According to patent publication US8287923B2, “Compositions and methods for treating immune disorders” (priority 2005, dated 2012):
# Tested on: normal human epidermal keratinocytes (NHEK)
# Test: Affymetrix gene array analysis, autoantigen gene expression
# Format: cell-based
# Conditions: 100 μM
# Method: The gene array experiment was performed at the Core Facility of Genomics of the Medical College of Georgia, according to the instructions of the manufacturer (Affymetrix, Santa Clara, Calif.). Briefly, NHEK and OSC2 cells treated with 100 μM EGCG for different time period were extracted for total RNA, the RNA was processed for probes and hybridized with a cDNA microarray (HuG133A, Affymetrix) which represents 22,283 human series. DNA chips were read with a Hewlett-Packard GeneArray Scanner at a resolution of […] and were analyzed with the GeneSpring software (Silicon Genetics, Redwood City, Calif.). Details of this analysis will be published elsewhere (Hsu et al., manuscript in preparation).
# Gene assays provide a valuable tool for studying the broad response of cells to agents, and we have used this approach to compare the differential effects of GTPP on gene expression in NHEK and human oral squamous carcinoma cells (Hsu, et al, manuscript in preparation). […] See also Hsu, S. et al. (2005) JPET 315:805-811, which is incorporated by reference in its entirety.
smiles,measurement,setting,value
"O=C(O[C@@H]1Cc2c(O)cc(O)cc2O[C@@H]1c1cc(O)c(O)c(O)c1)c1cc(O)c(O)c(O)c1 [EGCG, (−)-epigallocatechin-3-gallate]","60 kDa, SS-A/Ro (210438_x_at) expression, normalized",2 h,0.92
same,"60 kDa, SS-A/Ro (212852_s_at) expression, normalized",2 h,0.98
same,"Ku autoantigen, 80 kDa (208642_s_at) expression, normalized",2 h,1.14
same,"Ku autoantigen, 80 kDa (208643_s_at) expression, normalized",2 h,1.40
same,"Nuclear antigen SP100 (202863_at) expression, normalized",2 h,1.04
same,"Nuclear antigen SP100 (202864_s_at) expression, normalized",2 h,1.21
same,"Nuclear antigen SP10075 kDa (213226_at) expression, normalized",2 h,1.09
same,"RNA polymerase 1 (202692_s-at) expression, normalized",2 h,0.48
same,"SS-B/La (201138_s_at) expression, normalized",2 h,0.88
same,"SS-B/La (201139_s_at) expression, normalized",2 h,0.74
same,"centromere protein C1 (20473_at) expression, normalized",2 h,0.46
same,"coilin (203653_s_at) expression, normalized",2 h,0.54
same,"coilin (203654_s_at) expression, normalized",2 h,0.78
same,"fodrin-α (208611_s_at) expression, normalized",2 h,0.75
same,"fodrin-α (215235_s_at) expression, normalized",2 h,0.97
same,"golgin-67 (208797_s_at) expression, normalized",2 h,0.71
same,"golgin-67 (208798_x_at) expression, normalized",2 h,0.46
same,"golgin-67 (210425_x_at) expression, normalized",2 h,0.47
same,"golgin-67 (213650_at) expression, normalized",2 h,0.61
same,"scleroderma autoantigen 1, 75 kDa (213226_at) expression, normalized",2 h,1.09
same,"spectrin-β non-erythrocyctic 1 (212071_s_at) expression, normalized",2 h,0.92
same,"thyroid autoantigen 70 kDa (Ku antigen) (200792_at) expression, normalized",2 h,1.19
same,ADPRT [poly(ADP)-ribose polymerase] expression,"2 h, vs time zero",1.201 fold
same,ANAP12 expression,"2 h, vs time zero",0.991 fold
same,ANXA11 expression,"2 h, vs time zero",1.26 fold
same,CALR expression,"2 h, vs time zero",0.943 fold
same,CBARA1 expression,"2 h, vs time zero",0.773 fold
same,CENPA expression,"2 h, vs time zero",1.095 fold
same,CENPB expression,"2 h, vs time zero",0.773 fold
same,CENPC1 expression,"2 h, vs time zero",0.457 fold
same,CHD4 expression,"2 h, vs time zero",0.811 fold
same,COL17A1 expression,"2 h, vs time zero",1.102 fold
same,CTDSP1 expression,"2 h, vs time zero",1.00 fold
same,CTDSP2 expression,"2 h, vs time zero",1.21 fold
same,CTDSPL expression,"2 h, vs time zero",1.12 fold
same,DLAT expression,"2 h, vs time zero",0.924 fold
same,EPPK1 expression,"2 h, vs time zero",0.856 fold
same,FBL expression,"2 h, vs time zero",1.12 fold
same,FLJ31657 expression,"2 h, vs time zero",0.608 fold
same,"FLNB (Filamin B, β) expression","2 h, vs time zero",1.168 fold
same,"FLNB (Filamin B, γ) expression","2 h, vs time zero",0.92 fold
same,"G22P1 (Thyroid autoantigen, 70 kDa, Ku antigen) expression","2 h, vs time zero",1.185 fold
same,GMEB2 expression,"2 h, vs time zero",0.739 fold
same,GOLGA1 expression,"2 h, vs time zero",0.182 fold
same,GOLGA2 expression,"2 h, vs time zero",0.642 fold
same,GOLGA3 expression,"2 h, vs time zero",0.58 fold
same,GOLGA4 expression,"2 h, vs time zero",0.748 fold
same,GOLGA5 expression,"2 h, vs time zero",0.928 fold
same,GOLGB1 expression,"2 h, vs time zero",0.704 fold
same,HARS expression,"2 h, vs time zero",1.11 fold
same,HARSL expression,"2 h, vs time zero",1.05 fold
same,HSA6591 expression,"2 h, vs time zero",0.835 fold
same,HUMAUANTIG expression,"2 h, vs time zero",0.779 fold
same,IMP-2 expression,"2 h, vs time zero",1.366 fold
same,LAD1 expression,"2 h, vs time zero",0.681 fold
same,LMO4 expression (repeat 1),"2 h, vs time zero",0.867 fold
same,LMO4 expression (repeat 2),"2 h, vs time zero",1.199 fold
same,MGC5560 expression (repeat 1),"2 h, vs time zero",1.161 fold
same,MGC5560 expression (repeat 2),"2 h, vs time zero",0.932 fold
same,NS (Nucleostemin) expression,"2 h, vs time zero",0.95 fold
same,PDHB expression,"2 h, vs time zero",1.14 fold
same,PDX1 expression,"2 h, vs time zero",0.765 fold
same,"PMSCL1, 75 kDa expression","2 h, vs time zero",1.09 fold
same,PMSCL2 expression,"2 h, vs time zero",0.938 fold
same,POLR1B expression,"2 h, vs time zero",1.03 fold
same,POLR1D expression,"2 h, vs time zero",0.96 fold
same,POLR2A expression (repeat 1),"2 h, vs time zero",1.29 fold
same,POLR2A expression (repeat 2),"2 h, vs time zero",0.45 fold
same,POLR2B expression,"2 h, vs time zero",1.02 fold
same,POLR2C expression,"2 h, vs time zero",1.60 fold
same,POLR2D expression,"2 h, vs time zero",0.95 fold
same,POLR2E expression,"2 h, vs time zero",0.70 fold
same,POLR2F expression,"2 h, vs time zero",1.00 fold
same,POLR2G expression,"2 h, vs time zero",1.02 fold
same,POLR2H expression,"2 h, vs time zero",0.85 fold
same,POLR3C expression,"2 h, vs time zero",0.73 fold
same,POLR3G expression,"2 h, vs time zero",1.00 fold
same,PSME3 expression,"2 h, vs time zero",1.151 fold
same,RALY expression,"2 h, vs time zero",0.752 fold
same,SART1 expression,"2 h, vs time zero",1.188 fold
same,SLC25A16 expression,"2 h, vs time zero",0.886 fold
same,SNRP70 expression,"2 h, vs time zero",1.01 fold
same,SNRPA expression,"2 h, vs time zero",0.93 fold
same,SNRPB2 expression,"2 h, vs time zero",0.67 fold
same,SNRPB expression (repeat 1),"2 h, vs time zero",0.95 fold
same,SNRPB expression (repeat 2),"2 h, vs time zero",0.79 fold
same,SNRPC expression,"2 h, vs time zero",1.08 fold
same,SNRPD1 expression (repeat 1),"2 h, vs time zero",1.285 fold
same,SNRPD1 expression (repeat 2),"2 h, vs time zero",0.676 fold
same,SOX13 expression,"2 h, vs time zero",0.771 fold
same,SP100 expression (repeat 1),"2 h, vs time zero",1.037 fold
same,SP100 expression (repeat 2),"2 h, vs time zero",1.205 fold
same,SP110 expression (repeat 1),"2 h, vs time zero",1.702 fold
same,SP110 expression (repeat 2),"2 h, vs time zero",1.804 fold
same,SP110 expression (repeat 3),"2 h, vs time zero",1.026 fold
same,SPTAN1 (α-fodrin) expression (repeat 1),"2 h, vs time zero",0.75 fold
same,SPTAN1 (α-fodrin) expression (repeat 2),"2 h, vs time zero",0.97 fold
same,SPTBN expression,"2 h, vs time zero",0.92 fold
same,SSA2 (autoantigen SS-A/Ro) expression (repeat 2),"2 h, vs time zero",0.919 fold
same,SSA2 expression (repeat 1),"2 h, vs time zero",0.335 fold
same,SSA2 expression (repeat 3),"2 h, vs time zero",0.957 fold
same,SSA2 expression (repeat 4),"2 h, vs time zero",0.98 fold
same,SSB (autoantigen La) expression (repeat 1),"2 h, vs time zero",0.878 fold
same,SSB (autoantigen La) expression (repeat 2),"2 h, vs time zero",0.739 fold
same,SSNA1 expression,"2 h, vs time zero",1.17 fold
same,SSSCA1 expression,"2 h, vs time zero",1.694 fold
same,STRN3 expression,"2 h, vs time zero",0.623 fold
same,TOP1 expression (repeat 1),"2 h, vs time zero",1.09 fold
same,TOP1 expression (repeat 2),"2 h, vs time zero",0.62 fold
same,UBTF expression,"2 h, vs time zero",0.484 fold
same,"XRCC5 (Ku autoantigen, 80 kDa) expression (repeat 1)","2 h, vs time zero",1.403 fold
same,"XRCC5 (Ku autoantigen, 80 kDa) expression (repeat 2)","2 h, vs time zero",1.141 fold
same,dJ963E22.1 expression,"2 h, vs time zero",0.864 fold
same,α-NAC expression,"2 h, vs time zero",0.521 fold
same,"60 kDa, SS-A/Ro (210438_x_at) expression, normalized",6 h,0.69
